In assay [1] the target is RORγ ligand binding domain (Homo sapiens (Human), UniProt P51449). The experiment in a line: RORγ FRET assay (SRC-1 peptide binding to RORγ ligand binding domain).
Experimental: This assay measures the binding of the SRC-1 peptide to the RORγ ligand binding domain in the presence and absence of compound. The SRC-1 peptide was tagged with the streptavidin-europium and the RORγ ligand binding domain was tagged with strepavidin-APC.
Various concentrations of test ligands in 0.1 microliters DMSO were dispensed to assay plates using an Labcyte Echo acoustic dispenser. Two pre-mixes were prepared and incubated for 1 hr at room temp in the dark.
Five microliters of pre-mix 2 was dispensed to assay plates containing test compound and incubated for 15 minutes prior to adding five microliters of pre-mix 1. […] The raw data was transformed to % effect using the equation: Compound % effect=100*[(X−min)/(max−min)], where X represents the normalized value for the compound based on the Min (vehicle) and Max (reference compound) inhibition control.
The test system of assay [2] is Human CD4+CCR6+ T cells (TH17 cell differentiation). Briefly: Human Th17 cell differentiation assay (IL-17A in extracellular media by ELISA). The note with it: 96 h, read-out: Inhibition of TH17 cell differentiation - Mean IC50. Format: cell-based.
The mark [3] stands for this setting: IL17A in extracellular media by sandwich ELISA, 4 days with cytokine cocktail and antiCD2/CD3/28 beads.

Like-named read-outs stand apart in the source and are kept apart here.

Chain of RORγ ligand binding domain (P51449 258-518): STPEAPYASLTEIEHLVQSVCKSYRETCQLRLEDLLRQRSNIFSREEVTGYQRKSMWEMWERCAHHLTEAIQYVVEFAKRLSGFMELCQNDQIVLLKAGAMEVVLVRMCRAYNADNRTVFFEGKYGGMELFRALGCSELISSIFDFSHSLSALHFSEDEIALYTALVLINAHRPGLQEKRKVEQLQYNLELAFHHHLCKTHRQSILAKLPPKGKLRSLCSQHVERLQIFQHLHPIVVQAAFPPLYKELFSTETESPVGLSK

As usually defined, the IC50 is the concentration that gives 50% inhibition. Consider `O=C(O)c1ccc(-n2cc(Cc3c(Cl)cccc3C(F)(F)F)c3cccnc32)cc1` [Compound 1, 4-(3-{[2-chloro-6-(trifluoromethyl)phenyl]methyl}-1H-pyrrolo[2,3-b]pyridin-1-yl)benzoic acid], for which the IC50 in assay [1] worked out at 196 nM; in assay [2] (setting [3]), 142 nM.

On to `O=C(O)c1ccc(-n2cc(Cc3c(Cl)cccc3C(F)(F)F)c3ccccc32)cc1` [Compound 2, 4-(3-{[2-chloro-6-(trifluoromethyl)phenyl]methyl}-1H-indol-1-yl)benzoic acid], for which the IC50 in assay [1] (read-out: RORγ FRET - Mean IC50) is 71.8 nM; in assay [2], 33.6 nM.

For the compound `O=C(O)c1ccc(-n2cc(C(=O)c3c(Cl)cccc3C(F)(F)F)c3cncnc32)cc1` [Compound 3, 4-[5-[2-chloro-6-(trifluoromethyl)benzoyl]pyrrolo[2,3-d]pyrimidin-7-yl]benzoic acid], in assay [2], the 50% inhibitory concentration (IC50) turned out to be 356 nM.

On to `COc1cccc(F)c1C(=O)c1cn(-c2ccc(C(=O)O)cc2)c2ccccc12` [Compound 4, 4-[3-(2-fluoro-6-methoxy-benzoyl)indol-1-yl]benzoic acid], for which the concentration for half-maximal inhibition (IC50) in assay [2] (setting [3]) is 1490 nM.

As to `COc1cccc(F)c1C(=O)c1cn(-c2ccc(C(=O)O)cc2)c2c(F)cccc12` [Compound 5, 4-[7-fluoro-3-(2-fluoro-6-methoxy-benzoyl)indol-1-yl]benzoic acid], the IC50 in assay [2] (setting [3]) is 821 nM.

Consider `O=C(O)c1ccc(-n2cc(Cc3c(Cl)cccc3C(F)(F)F)c3ccccc32)cc1O` [Compound 6, 4-[3-[[2-chloro-6-(trifluoromethyl)phenyl]methyl]indol-1-yl]-2-hydroxy-benzoic acid], for which, in assay [2] (setting [3]), the IC50 came out at 4.81 nM.

On to `Cc1cccc2c(C(=O)c3c(Cl)cccc3C(F)(F)F)cn(-c3ccc(C(=O)O)cc3)c12` [Compound 7, 4-[3-[2-chloro-6-(trifluoromethyl)benzoyl]-7-methyl-indol-1-yl]benzoic acid], for which the IC50 in assay [2] (setting [3]) was determined as 498 nM.

Regarding `O=C(O)c1ccc(-n2cc(C(=O)c3c(Cl)cccc3C(F)(F)F)c3cccc(F)c32)nc1` [Compound 8, 6-[3-[2-chloro-6-(trifluoromethyl)benzoyl]-7-fluoro-indol-1-yl]pyridine-3-carboxylic acid], in assay [2] (setting [3]), the IC50 is 39.5 nM.

For `Cc1cccc2c(C(=O)c3c(Cl)cccc3Cl)cn(-c3ccc(C(=O)O)cc3)c12` [Compound 9, 4-[3-(2,6-dichlorobenzoyl)-7-methyl-indol-1-yl]benzoic acid], in assay [2] (setting [3]), the IC50 stood at 1600 nM.

Take `COc1cccc(F)c1C(=O)c1nn(-c2ccc(C(=O)O)cc2)c2ccccc12` [Compound 10, 4-[3-(2-fluoro-6-methoxy-benzoyl)indazol-1-yl]benzoic acid]: the IC50 in assay [2] (setting [3]) was found to be 455 nM.

On to `O=C(O)c1ccc(-n2cc(C(=O)c3c(F)cccc3OC(F)(F)F)c3cccc(F)c32)cc1` [Compound 12, 4-[7-fluoro-3-[2-fluoro-6-(trifluoromethoxy)benzoyl]indol-1-yl]benzoic acid], for which the IC50 in assay [2] (setting [3]) turned out to be 192 nM.

Consider `O=C(O)c1ccc(-n2cc(C(=O)c3c(F)cccc3OC(F)(F)F)c3cccc(F)c32)c(F)c1` [Compound 13, 3-fluoro-4-[7-fluoro-3-[2-fluoro-6-(trifluoromethoxy)benzoyl]indol-1-yl]benzoic acid], for which the IC50 in assay [2] (setting [3]) is 181 nM.

In the case of `O=C(O)c1ccc(-n2cc(C(=O)c3c(F)cccc3OC(F)(F)F)c3ccccc32)cc1` [Compound 14, 4-[3-[2-fluoro-6-(trifluoromethoxy)benzoyl]indol-1-yl]benzoic acid], the IC50 in assay [2] (setting [3]) came to 338 nM.

For the origin of these results see US10383850B2, “Indazole and indole derivatives as inhibitors of retinoic acid related orphan receptor gamma (ROR gamma) for the treatment of immune-related diseases” (ORCA PHARMACEUTICALS LIMITED, priority 2014, dated 2019).
